Experimental data as given in PubChem BioAssay (NCI).
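Briefly, cells in 96-well plates were exposed to five compound concentrations for 48 h, and endpoints were estimated by linear interpolation. Abbreviation: GI50, concentration required for 50% inhibition of growth. The concentration for full growth arrest is given as TGI.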 Where a SMILES comes first, the peptide text is derived from it. [ ]: non-standard residue; d: D form. ξ: configuration not given here. ξLac(3-iPr) = CC(C)CC(O)C(=O)O; NMeV = CN[CH](C(=O)O)C(C)C; NMeA = CN[CH](C)C(=O)O; βAla = NCCC(=O)O

Tests used:
Assay in all cases: NCI-60 cell line screen, 48 h
ACHN renal = test system: ACHN renal
K-562 leukemia = test system: K-562 leukemia
SK-MEL-28 melanoma = test system: SK-MEL-28 melanoma
HT29 colon = test system: HT29 colon
SNB-75 CNS = test system: SNB-75 CNS
SK-OV-3 ovarian = test system: SK-OV-3 ovarian
HCT-15 colon = test system: HCT-15 colon
HL-60(TB) leukemia = test system: HL-60(TB) leukemia
UO-31 renal = test system: UO-31 renal
COLO 205 colon = test system: COLO 205 colon
SNB-19 CNS = test system: SNB-19 CNS
PC-3 prostate = test system: PC-3 prostate

Structure (SMILES)	GI50 (ACHN renal)	TGI (ACHN renal)	GI50 (K-562 leukemia)	TGI (K-562 leukemia)	GI50 (SK-MEL-28 melanoma)	TGI (SK-MEL-28 melanoma)	GI50 (HT29 colon)	TGI (HT29 colon)	GI50 (SNB-75 CNS)	TGI (SNB-75 CNS)	GI50 (SK-OV-3 ovarian)	TGI (SK-OV-3 ovarian)	GI50 (HCT-15 colon)	TGI (HCT-15 colon)	TGI (HL-60(TB) leukemia)	TGI (UO-31 renal)	TGI (COLO 205 colon)	TGI (SNB-19 CNS)	TGI (PC-3 prostate)
N#C/C(=C\c1ccc(Br)cc1)n1nnc2cc(Cl)c(Cl)cc21	1.73 µM	3.24 µM	2.31 µM	> 100 µM	1.84 µM	3.81 µM	2.18 µM	5.18 µM	1.73 µM	8.26 µM	4.33 µM	> 100 µM	1.67 µM	5.17 µM	–	–	–	–	–
CN=C(N)c1ccc(N=C(N)c2ccc(C(N)=Nc3ccc(C(N)=NC)cc3)cc2)cc1	–	> 100 µM	–	> 100 µM	–	> 100 µM	–	> 100 µM	–	> 100 µM	–	> 100 µM	–	> 100 µM	> 100 µM	> 100 µM	> 100 µM	> 100 µM	–
CO/N=C\c1cc(O)c(O)c(/C=N/OC)c1	–	> 100 µM	–	> 100 µM	–	> 100 µM	–	> 100 µM	–	> 100 µM	–	> 100 µM	–	> 100 µM	99.3 µM	> 100 µM	> 100 µM	> 100 µM	> 100 µM
O=C(N/N=C/c1ccc([N+](=O)[O-])cc1)Nc1ccc(Br)cc1	–	> 100 µM	–	> 100 µM	–	> 100 µM	–	> 100 µM	–	> 100 µM	–	> 100 µM	–	> 100 µM	> 100 µM	> 100 µM	> 100 µM	> 100 µM	> 100 µM
C[N+](C)(C)c1cc2c(nn1)Nc1ccccc1S2	–	69.6 µM	–	68.9 µM	–	53.1 µM	–	42.5 µM	–	–	–	72 µM	–	> 100 µM	74 µM	41.9 µM	38 µM	> 100 µM	47.9 µM
CCC(C)C1NC(=O)C2CCCN2C(=O)C(CC(C)C)OC(=O)CCNC(=O)C(C)N(C)C(=O)C(C(C)C)N(C)C1=O (stereo unspecified) (cyclo([ξLac(3-iPr)]PI[NMeV][NMeA][βAla]); configuration not given here)	–	> 83.4 µM	–	> 100 µM	–	> 100 µM	–	43.7 µM	–	> 86.8 µM	–	> 86.8 µM	–	> 100 µM	18.2 µM	> 42 µM	17.2 µM	> 100 µM	> 100 µM
O=C(c1ccccc1)C1C(c2ccccc2)N1S(=O)(=O)c1ccccc1 (stereo unspecified)	–	–	–	> 100 µM	–	> 100 µM	–	> 100 µM	–	> 100 µM	–	> 100 µM	–	> 100 µM	–	> 100 µM	> 100 µM	–	> 100 µM
Cc1ccc2c(ccc(/C=C\c3cc(C)c4cccnc4c3O)[n+]2C)c1	–	20.4 µM	–	> 100 µM	–	–	–	–	–	–	–	–	–	–	19.7 µM	66 µM	71.9 µM	35 µM	–
CCOC(=O)c1c(C)n(C)c2c1cc(O)c1[nH]c3c(c12)CCCC3	–	> 100 µM	–	40.3 µM	–	32.8 µM	–	49.4 µM	–	–	–	> 100 µM	–	> 100 µM	46.7 µM	69.9 µM	23.5 µM	> 100 µM	46.6 µM
Cc1nc2[nH]ncn2c(=O)c1CCCl	–	> 10 µM	–	> 10 µM	–	> 10 µM	–	> 10 µM	–	> 10 µM	–	> 10 µM	–	> 10 µM	> 10 µM	> 10 µM	> 10 µM	> 10 µM	> 10 µM
Clc1ccc(C[P+]2(c3ccccc3)CCCCC2)cc1	–	> 100 µM	–	> 100 µM	–	> 100 µM	–	> 100 µM	–	> 100 µM	–	> 100 µM	–	> 100 µM	93.9 µM	> 100 µM	> 100 µM	> 100 µM	–
C[C@]12CC[C@@H]3c4ccc(O)cc4CC[C@H]3[C@@H]1CC[C@@H]2OC(=O)CCc1ccccc1	–	35.5 µM	–	33.9 µM	–	39.2 µM	–	40.7 µM	–	33.8 µM	–	38.1 µM	–	33 µM	43.9 µM	33.8 µM	37.1 µM	37.7 µM	34.4 µM
CCN(CC)c1ccc2nc3ccc(N=Nc4c(O)ccc5ccccc45)cc3[n+](-c3ccccc3)c2c1	–	> 100 µM	–	> 100 µM	–	> 100 µM	–	> 100 µM	–	> 100 µM	–	> 100 µM	–	> 100 µM	> 100 µM	> 100 µM	> 100 µM	> 100 µM	> 100 µM
COc1cc(C(=O)CC2OC(=O)C(Cl)=C2Cl)ccc1Cl (stereo unspecified)	–	> 100 µM	–	> 100 µM	–	> 100 µM	–	> 100 µM	–	> 100 µM	–	> 100 µM	–	> 100 µM	> 100 µM	> 100 µM	> 100 µM	> 100 µM	–
OCc1cc2ccncc2c2c1[nH]c1ccccc12	–	15.9 µM	–	> 100 µM	–	> 100 µM	–	22.8 µM	–	19.5 µM	–	–	–	91.5 µM	24.9 µM	28 µM	29.4 µM	–	–
Clc1ccc(OCc2nnc3sc(-c4ccc(-c5ccc(Cl)cc5Cl)o4)nn23)cc1	–	> 100 µM	–	> 100 µM	–	> 100 µM	–	> 100 µM	–	31.3 µM	–	> 100 µM	–	> 100 µM	> 100 µM	> 100 µM	> 100 µM	> 100 µM	> 100 µM
CC1(C)N=C(N)N=C(N)N1c1cccc(C(=O)Nc2ccc(S(=O)(=O)F)cc2)c1	–	> 100 µM	–	> 100 µM	–	> 100 µM	–	> 100 µM	–	> 100 µM	–	> 100 µM	–	> 100 µM	> 100 µM	> 100 µM	> 100 µM	> 100 µM	> 100 µM
Cc1ccc(C2COc3cc(O)c(O)cc3C2)cc1 (stereo unspecified)	–	–	–	42.8 µM	–	32.8 µM	–	149 µM	–	126 µM	–	275 µM	–	31.8 µM	8.27 µM	101 µM	26.2 µM	251 µM	–
O=C1/C(=C/c2ccc(Oc3ccccc3)cc2)N=C(c2ccccc2)N1c1ccc(S(=O)(=O)Nc2nccs2)cc1	–	> 100 µM	–	> 100 µM	–	> 100 µM	–	72.6 µM	–	58.1 µM	–	> 100 µM	–	70.1 µM	34.9 µM	78.2 µM	22.2 µM	> 100 µM	> 100 µM
O=C1c2ccccc2C(=O)c2c(Nc3cc4c5c(ccc6c7ccc8c9c(cc(Nc%10cccc%11c%10C(=O)c%10ccccc%10C%11=O)c(c3c56)c97)-c3ccccc3C8=O)C(=O)c3ccccc3-4)cccc21	–	> 100 µM	–	> 100 µM	–	> 100 µM	–	> 100 µM	–	41.5 µM	–	51.1 µM	–	> 100 µM	–	> 100 µM	> 100 µM	> 100 µM	> 100 µM
O=C(O)CCC(N=NNc1ccc(-c2nc3ccccc3[nH]2)cc1)C(=O)O (stereo unspecified)	–	> 100 µM	–	> 100 µM	–	> 100 µM	–	> 100 µM	–	> 100 µM	–	> 100 µM	–	> 100 µM	> 100 µM	> 100 µM	> 100 µM	> 100 µM	> 100 µM
CC(=O)n1cc(OP(=O)(Oc2ccccc2)Oc2ccccc2)c2ccccc21	–	–	–	67.4 µM	–	86 µM	–	> 100 µM	–	–	–	–	–	> 100 µM	50.3 µM	> 100 µM	27.2 µM	> 100 µM	31 µM
Oc1c(Br)cc(/C=C/c2cccc(/C=C/c3cc(Br)c(O)c(Br)c3)n2)cc1Br	–	52.3 µM	–	23.7 µM	–	58.6 µM	–	25.1 µM	–	31.6 µM	–	62.9 µM	–	26.3 µM	–	28.4 µM	32.1 µM	29.4 µM	25.1 µM
CC(NC(=O)c1ccc(NP(=O)(OCc2ccc([N+](=O)[O-])o2)N(C)CCCCCl)cc1)c1ccc(OCC2CCCCC2)c(C(N)=O)c1 (stereo unspecified)	–	> 100 µM	–	83.2 µM	–	31.6 µM	–	44.4 µM	–	31.7 µM	–	78.3 µM	–	> 100 µM	50 µM	> 100 µM	22.8 µM	90.8 µM	> 100 µM
